# Laboratory results published in PubChem BioAssay AID248 (DTP/NCI, 2004).
# Several values for one entry are separate records, joined by “and”; a condition that tells them apart may be missing. Equal values may be shown once. Toxic doses and inconclusive results are not listed.
# Tested on: L1210 leukemia ip in BDF1 mice, survival T/C
# Assay: NCI In Vivo Anticancer Drug Screen. Data for tumor model L1210 Leukemia (intraperitoneal) in B6D2F1 (BDF1) mice
# Details: endpoint: mean survival time, higher = longer survival
# Summary of the method: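 Tumor cells were implanted, animals were treated, and survival was followed. The result divides the treated measurement by the vehicle-control measurement.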
# [1] = dose: 50.0 mg/kg/injection, schedule: Q01DX001 (ip), vehicle: saline with Tween-80
# [2] = dose: 100.0 mg/kg/injection, schedule: Q01DX001 (ip), vehicle: saline with Tween-80
# [3] = dose: 100.0 mg/kg/injection, schedule: Q04DX003 (ip), vehicle: Klucel (hydroxypropylcellulose) (HPC)
# [4] = dose: 200.0 mg/kg/injection, schedule: Q04DX003 (ip), vehicle: Klucel (hydroxypropylcellulose) (HPC)
# [5] = dose: 400.0 mg/kg/injection, schedule: Q04DX003 (ip), vehicle: Klucel (hydroxypropylcellulose) (HPC)
# [6] = dose: 100.0 mg/kg/injection, schedule: Q01DX001 (ip), vehicle: saline
# [7] = dose: 200.0 mg/kg/injection, schedule: Q01DX001 (ip), vehicle: saline
# [8] = dose: 400.0 mg/kg/injection, schedule: Q01DX001 (ip), vehicle: saline
# [9] = dose: 100.0 mg/kg/injection, schedule: Q01DX009 (ip), vehicle: saline
# [10] = dose: 200.0 mg/kg/injection, schedule: Q01DX009 (ip), vehicle: saline
# [11] = dose: 400.0 mg/kg/injection, schedule: Q01DX009 (ip), vehicle: saline
smiles,measurement,setting,value
N\C([S-])=N/N=C\C(=N/N=C(\N)[S-])C(O)C(O)C(O)CO.[Rh+2] (stereo not given),T/C,"dose: 100.0 mg/kg/injection, schedule: Q04DX003 (ip), vehicle: other",106 % of control
same,T/C,"dose: 200.0 mg/kg/injection, schedule: Q04DX003 (ip), vehicle: other",93 % of control
same,T/C,"dose: 400.0 mg/kg/injection, schedule: Q04DX003 (ip), vehicle: other",98 % of control
CC(C)CCn1ccc(N)nc1=O,T/C,"dose: 25.0 mg/kg/injection, schedule: Q01DX001 (ip), vehicle: saline with Tween-80",97 % of control
same,T/C,[1],101 % of control
same,T/C,[2],90 % of control
C[n+]1ccc(C#N)c2ccccc21,T/C,"dose: 1.56 mg/kg/injection, schedule: Q01DX009 (ip), vehicle: saline",96 % of control
same,T/C,"dose: 3.12 mg/kg/injection, schedule: Q01DX009 (ip), vehicle: saline",98 % of control
same,T/C,"dose: 6.25 mg/kg/injection, schedule: Q01DX009 (ip), vehicle: saline",106 % of control
same,T/C,"dose: 12.5 mg/kg/injection, schedule: Q01DX009 (ip), vehicle: saline",98 % of control
same,T/C,"dose: 12.5 mg/kg/injection, schedule: Q04DX003 (ip), vehicle: saline",101 % of control
CCCCCCCCCCCCCCCCCSc1cccc(C)c1,T/C,[3],93 % of control
same,T/C,[4],88 % of control
Nc1ncc([N+](=O)[O-])cn1,T/C,"dose: 100.0 mg/kg/injection, schedule: Q01DX009 (ip), vehicle: Klucel (hydroxypropylcellulose) (HPC)",107 % of control
same,T/C,[3],103 % of control
same,T/C,"dose: 200.0 mg/kg/injection, schedule: Q01DX009 (ip), vehicle: Klucel (hydroxypropylcellulose) (HPC)",91 % of control
same,T/C,[4],97 % of control
same,T/C,"dose: 400.0 mg/kg/injection, schedule: Q01DX009 (ip), vehicle: Klucel (hydroxypropylcellulose) (HPC)",100 % of control
same,T/C,[5],94 % of control
Cn1c(=O)c2[nH]c(CC3CCCC3)nc2n(C)c1=O,T/C,"dose: 50.0 mg/kg/injection, schedule: Q01DX001 (ip), vehicle: saline",104 % of control
same,T/C,[6],104 % of control
same,T/C,[7],101 % of control
same,T/C,[8],95 % of control
O=C(N/N=C/C=C\c1ccccc1)C(=O)N/N=C/C=C/c1ccccc1,T/C,[3],94 % of control
same,T/C,[4],89 % of control
same,T/C,[5],94 % of control
CC1CN1P(=O)(OCCC#N)N1CC1C (stereo not given),T/C,"dose: 50.0 mg/kg/injection, schedule: Q01DX009 (ip), vehicle: saline",99 % of control and 111 % of control
same,T/C,[9],110 % of control and 113 % of control
same,T/C,"dose: 132.0 mg/kg/injection, schedule: Q04DX003 (ip), vehicle: acetone",109 % of control
same,T/C,[10],108 % of control
same,T/C,[11],96 % of control
Cc1ccccc1C(=O)C(C#N)c1ccccc1 (stereo not given),T/C,"dose: 25.0 mg/kg/injection, schedule: Q01DX009 (ip), vehicle: saline with Tween-80",103 % of control and 92 % of control
same,T/C,"dose: 25.0 mg/kg/injection, schedule: Q04DX003 (ip), vehicle: saline with Tween-80",98 % of control
same,T/C,[1],95 % of control
same,T/C,"dose: 50.0 mg/kg/injection, schedule: Q01DX009 (ip), vehicle: saline with Tween-80",96 % of control and 103 % of control
same,T/C,"dose: 50.0 mg/kg/injection, schedule: Q04DX002 (ip), vehicle: saline with Tween-80",97 % of control
same,T/C,"dose: 50.0 mg/kg/injection, schedule: Q04DX003 (ip), vehicle: saline with Tween-80",102 % of control
same,T/C,[2],90 % of control
same,T/C,"dose: 100.0 mg/kg/injection, schedule: Q01DX009 (ip), vehicle: saline with Tween-80",113 % of control and 118 % of control
same,T/C,"dose: 100.0 mg/kg/injection, schedule: Q04DX002 (ip), vehicle: saline with Tween-80",93 % of control and 111 % of control and 88 % of control
same,T/C,"dose: 200.0 mg/kg/injection, schedule: Q04DX002 (ip), vehicle: saline with Tween-80",90 % of control
CC12CCC(C(Br)C1=O)C2(C)CS(=O)(=O)O (stereo not given),T/C,[6],104 % of control and 101 % of control
same,T/C,[9],89 % of control
same,T/C,"dose: 100.0 mg/kg/injection, schedule: Q04DX003 (ip), vehicle: saline",95 % of control
same,T/C,[7],93 % of control and 104 % of control
same,T/C,[10],97 % of control
same,T/C,"dose: 200.0 mg/kg/injection, schedule: Q04DX003 (ip), vehicle: saline",97 % of control
same,T/C,[8],104 % of control
same,T/C,[11],92 % of control
same,T/C,"dose: 400.0 mg/kg/injection, schedule: Q04DX003 (ip), vehicle: saline",95 % of control
CC1(C)CCC2(C(=O)OC3OC(CO)C(O)C(O)C3O)CCC3(CO)C(=CCC4C5(C)CC(O)C(O)C(C)(C(=O)OC6OC(CO)C(O)C(O)C6O)C5CCC43C)C2C1 (stereo not given),T/C,"dose: 75.0 mg/kg/injection, schedule: Q01DX001 (sc), vehicle: steriod suspending solution",101 % of control
same,T/C,"dose: 300.0 mg/kg/injection, schedule: Q01DX001 (sc), vehicle: steriod suspending solution",107 % of control
CN(C)C1=NS(=O)(=O)N=C(N(C)c2ccccc2)O1,T/C,"dose: 100.0 mg/kg/injection, schedule: Q01DX001 (ip), vehicle: Klucel (hydroxypropylcellulose) (HPC)",109 % of control
same,T/C,[3],97 % of control
same,T/C,"dose: 200.0 mg/kg/injection, schedule: Q01DX001 (ip), vehicle: Klucel (hydroxypropylcellulose) (HPC)",101 % of control
same,T/C,[4],105 % of control
same,T/C,"dose: 400.0 mg/kg/injection, schedule: Q01DX001 (ip), vehicle: Klucel (hydroxypropylcellulose) (HPC)",103 % of control
same,T/C,[5],103 % of control
O=C1CC(CC(=O)C2CCCC2=O)CC(=O)N1 (stereo not given),T/C,[6],101 % of control
same,T/C,[7],100 % of control
same,T/C,[8],108 % of control
CCSc1nc(Cl)cc(Sc2nc(N)nc3nc[nH]c23)n1,T/C,"dose: 10.0 mg/kg/injection, schedule: Q01DX009 (ip), vehicle: saline",104 % of control
same,T/C,"dose: 12.0 mg/kg/injection, schedule: Q01DX001 (ip), vehicle: saline",100 % of control
same,T/C,"dose: 15.0 mg/kg/injection, schedule: Q04DX003 (ip), vehicle: saline",116 % of control
same,T/C,"dose: 19.0 mg/kg/injection, schedule: Q01DX001 (ip), vehicle: saline",119 % of control
same,T/C,"dose: 20.0 mg/kg/injection, schedule: Q01DX009 (ip), vehicle: saline",115 % of control
same,T/C,"dose: 30.0 mg/kg/injection, schedule: Q04DX003 (ip), vehicle: saline",122 % of control
same,T/C,"dose: 45.0 mg/kg/injection, schedule: Q01DX001 (ip), vehicle: saline",123 % of control
same,T/C,"dose: 50.0 mg/kg/injection, schedule: Q04DX003 (ip), vehicle: saline",118 % of control
same,T/C,"dose: 66.0 mg/kg/injection, schedule: Q01DX001 (ip), vehicle: saline",114 % of control and 123 % of control
same,T/C,[9],156 % of control
same,T/C,"dose: 100.0 mg/kg/injection, schedule: Q01DX Z (ip), vehicle: methylcellulose (MC)",115 % of control
same,T/C,"dose: 120.0 mg/kg/injection, schedule: Q04DX003 (ip), vehicle: saline",151 % of control
same,T/C,"dose: 132.0 mg/kg/injection, schedule: Q04DX003 (ip), vehicle: saline with Tween-80",175 % of control
same,T/C,[7],100 % of control
same,T/C,"dose: 200.0 mg/kg/injection, schedule: Q01DX Z (ip), vehicle: methylcellulose (MC)",122 % of control
same,T/C,[4],158 % of control
same,T/C,"dose: 200.0 mg/kg/injection, schedule: Q04DX003 (ip), vehicle: saline with Tween-80",200 % of control
same,T/C,"dose: 240.0 mg/kg/injection, schedule: Q01DX001 (ip), vehicle: saline",193 % of control
same,T/C,"dose: 240.0 mg/kg/injection, schedule: Q04DX003 (ip), vehicle: saline",204 % of control
same,T/C,"dose: 300.0 mg/kg/injection, schedule: Q04DX003 (ip), vehicle: Klucel (hydroxypropylcellulose) (HPC)",168 % of control
same,T/C,"dose: 300.0 mg/kg/injection, schedule: Q04DX003 (ip), vehicle: saline with Tween-80",180 % of control
same,T/C,"dose: 360.0 mg/kg/injection, schedule: Q01DX001 (ip), vehicle: saline",205 % of control
same,T/C,"dose: 360.0 mg/kg/injection, schedule: Q04DX003 (ip), vehicle: saline",188 % of control
same,T/C,[11],108 % of control
same,T/C,"dose: 400.0 mg/kg/injection, schedule: Q01DX Z (ip), vehicle: carboxymethylcellulose (CMC)",102 % of control
same,T/C,"dose: 600.0 mg/kg/injection, schedule: Q01DX009 (ip), vehicle: saline",121 % of control
same,T/C,"dose: 800.0 mg/kg/injection, schedule: Q01DX Z (ip), vehicle: carboxymethylcellulose (CMC)",90 % of control
same,T/C,"dose: 810.0 mg/kg/injection, schedule: Q01DX001 (ip), vehicle: saline",124 % of control
same,T/C,"dose: 810.0 mg/kg/injection, schedule: Q04DX003 (ip), vehicle: saline",119 % of control
